Assay results reported in publication PMC12736313, “Curcumin and Resveratrol vs. Ferrocene-Modified Polyphenols: Role in Enhancing Protective Properties in Human Keratinocytes” (Pharmaceutics, 2025).
“Also recorded” adds a separate entry of the source.

Columns and labels:
HaCaT cells [1] = assay: Cell proliferation/viability by Trypan Blue exclusion method; type: cell-based, human; details: 48 h; for antiproliferative activity compared to RSV or CRC-treated cells: 5–100 µM
Description: (§1) The adherent HaCaT cell line was obtained from Cytion, Eppelheim, Germany. The HaCaT cell line was routinely grown in Dulbecco’s Modified Eagle Medium supplemented with 10% (v/v) fetal bovine serum (atmosphere of 95% air and 5% CO2 at 37 °C), obtained from Sigma-Aldrich Co., St. Louis, MO, USA. No antibiotics were used throughout the experiments. Cells were harvested with trypsin/EDTA solution (Sigma-Aldrich Co.) after reaching >70% confluence, diluted to the required density, and seeded in multiwell plates (Nunc, Roskilde, Denmark), depending on the experiments performed.
(§2) The cytotoxicity endpoints were determined by MTT (3-(4,5-dimethyl-2-thiazolyl)-2,5-diphenyl-2H-tetrazolium bromide) assay and Trypan blue method. For the MTT assay, cells were seeded in 96-well transparent flat-bottomed polystyrene plates at an initial concentration of 2.5 × 10^5 cells mL^−1 (100 μL/well) in growth medium supplemented with RSV, RF, CRC, and CF at concentrations of 5–100 μM. Concentrations were chosen based on our previously conducted research—reported cytotoxicity thresholds in HaCaT and other cell lines. RF and CF were synthesized in the Laboratory for Organic Chemistry at the University of Zagreb Faculty of Food Technology and Biotechnology, Zagreb, Croatia, while RSV and CRC were purchased from Sigma-Aldrich. After 48 h of incubation at 37 °C, cell viability was determined using the MTT assay. The absorbance was measured at 540 nm (Cary Eclipse spectrofluorimeter, Varian, Palo Alto, CA, USA). For the Trypan blue method, the cells were seeded in 6-well plates at an initial concentration of 2 × 10^4 cells mL^−1 (4 mL/well). After overnight incubation at 37 °C, the cells were treated with RSV, RF, CRC, and CF at different concentrations (5–100 μM). Cell viability was determined 48 h after treatment using the Trypan blue method. The stock solution of RSV was prepared in EtOH, while CRC and ferrocenyl analogues require DMSO due to higher lipophilicity. All stock solutions were stored at −20 °C until use. […] Cell viability is expressed as the percentage of treated cells compared to control cells. For each concentration tested, 3–15 independent biological samples were analyzed.

HaCaT cells [2] = assay: Cell viability by MTT assay; type: cell-based, human; details: 48 h; for IC20 / IC50 / IC80: MTT method
Description: as §1, §2

HaCaT cells [3] = assay: Intracellular ROS (DCFDA) induced by tert-butyl hydroperoxide; type: cell-based, human; details: then 50 µM tBHP; for doses with statistically significant (p < 0.05) lowering of ROS levels: HaCaT pretreated overnight; for effect on ROS induced by tBHP: HaCaT pretreated with 2.5–50 µM
Description: (§3) Two approaches were used for intracellular ROS induction. The first approach involved pretreatment of HaCaT cells with RSV, RF, CRC, and CF and, after overnight incubation, treatment with 50 μM tBHP (tert-butyl hydroperoxide). The second approach included pretreatment of the cells with CRC and CF, and after overnight incubation, exposure of the cells to UV (ultraviolet)-C light (15 W; 55 V; 254 nm; PURITEC HNS Linear Lamps, HNS 15 W G13, Osram GmbH, Munich, Germany) for 3 h. In brief, HaCaT cells were seeded at a concentration of 2.5 × 10^5 cells mL^−1 in black 96-well plates (100 µL/well) in growth medium and supplemented with RSV, RF, CRC, and CF at concentrations 2.5–50 μM. The DCFDA/H2DCFDA (2′,7′-dichlorofluorescin diacetate/2′,7′-dichlorodihydrofluorescein diacetate) assay was performed according to the manufacturer’s protocol with minor modifications (Cellular ROS Assay Kit Cat. No. ab113851, Abcam, Cambridge, UK). The intracellular ROS level was determined by measuring the fluorescence intensity (λex/em = 485/535 nm; Cary Eclipse spectrofluorimeter). Cells treated with the same volume of DMSO or EtOH in which RSV, RF, CRC, and CF were dissolved, and cells treated with 50 µM tBHP served as controls. In UV experiments, cells treated with the solvent (DMSO) and exposed to UVR (ultraviolet radiation) were considered as control samples. For each concentration tested, 3–8 independent biological samples were analyzed.

HaCaT cells [4] = assay: Intracellular ROS (DCFDA), UV-C-induced or endogenous; type: cell-based, human
Description: as §3

HaCaT cells [5] = assay: Apoptosis/necrosis by Muse Annexin V & Dead Cell Kit (flow cytometry); type: cell-based, human; details: 48 h
Description: (§4) The Muse™ Annexin V & Dead Cell Kit (Cat. No. MCH100105, Millipore, Merck Darmstadt, Germany) was used to determine the percentage of HaCaT cells in four different cell populations (live, early apoptotic, late apoptotic, and dead) after treatment of cells with RSV, RF, CRC, and CF (5–100 μM; for 48 h) according to the manufacturer’s protocol. A detailed protocol was elucidated in Murati et al.. The cells were analyzed using the Muse™ Cell Analyzer (Luminex, Austin, TX, USA). For each concentration tested, 3–7 independent biological samples were analyzed.

HaCaT cells [6] = assay: Autophagy by Muse Autophagy LC3-antibody based kit (flow cytometry); type: cell-based, human; details: 48 h; for order of the autophagy induction ratio (from highest to lowest): 100 µM
Description: The Muse™ Autophagy LC3-antibody based kit (Cat. No. MCH200109, Millipore) was used to determine the induction of autophagy in HaCaT cells after treatment with RSV, RF, CRC, and CF (5–100 μM) with some minor protocol modifications. The experimental procedure for both analyses was set up as for cell viability determination by the Trypan blue method. Autophagy induction data were read based on the fluorescence intensity of the sample (using Muse™ Cell Analyzer). For each concentration tested, 3–8 independent biological samples were analyzed.

[7] = Apoptosis/necrosis by Muse Annexin V & Dead Cell Kit (flow cytometry); type: cell-based, human; details: human, HaCaT cells, highest concentration (100 µM), read-out: viability (live cells)
Description: as §4

DNA [8] = test system: DNA; design: method as in PMID 21388716; details: cited from earlier work
DNA [9] = test system: DNA; design: method as in PMID 21388716; details: cited from earlier work; remark: listed apart in the source
[10] = HaCaT, Trypan Blue method, from dose–response curves
[11] = value outside the range of the tested doses (>100 µM)
[12] = Homo sapiens, HaCaT, Trypan Blue method, from dose–response curves
[13] = Homo sapiens, from dose–response curves

For COc1cc(/C=C/C(=O)CC(=O)[c-]2cccc2)ccc1O.[Fe+2].c1cc[cH-]c1 [CF, (E)-5-(4-hydroxy-3-methoxyphenyl)-1-ferrocenylpent-4-ene-1,3-dione], the “antiproliferative activity compared to RSV or CRC-treated cells” value (HaCaT cells [1]; Trypan Blue) was “significantly lower antiproliferative activity”, the IC20 (HaCaT cells [1]; [10]) was 75.4 µM and the IC20 (HaCaT cells [2]; [11]) was 121 µM. The IC50 (HaCaT cells [2]; [11]) was 208 µM, the IC80 (HaCaT cells [2]; [11]) was 273 µM and the “doses with statistically significant (p < 0.05) lowering of ROS levels” value (HaCaT cells [3]) was no less than 5 µM. For the same compound, the “effect on ROS induced by tBHP” value (HaCaT cells [3]) was “most pronounced effect; also recorded: significantly reduced the ROS induced by tBHP”, the “effect on UV-induced ROS” value (HaCaT cells [4]; HaCaT pretreated with 2.5–50 µM, UV-C 3 h) was “did not exhibit significant antioxidant activity” and the “effect on cell death / viability by flow cytometry” value (HaCaT cells [5]; 5–100 µM) was “induced cell death significantly less compared to all compounds tested; also recorded: almost no effect on cell viability”. The “order of the autophagy induction ratio (from highest to lowest)” value (from here on “order of the autophagy induction ratio”) (HaCaT cells [6]) was “CRC > CF > RF ≈ RSV” and the “effect on autophagy induction” value (HaCaT cells [6]; 5–100 µM) was “reduced autophagic degradation activity; also recorded: decrease in the autophagy induction ratio”.
In the case of COc1cc(/C=C/C(=O)CC(=O)/C=C/c2ccc(O)c(OC)c2)ccc1O [CRC, (1E,6E)-1,7-bis(4-hydroxy-3-methoxyphenyl)-1,6-heptadiene-3,5-dione], the “doses at which cell viability was almost completely impaired” value (HaCaT cells [1]; HaCaT, Trypan Blue) is reported as no less than 50 µM, the IC50 (HaCaT cells [1]; [12]) is reported as 11 µM and the IC80 (HaCaT cells [1]; [12]) is reported as 26.4 µM. The “doses at which cell viability was almost completely impaired” value (HaCaT cells [2]; MTT) was no less than 50 µM, the “concentrations with statistically significant (p < 0.05) cytotoxicity” value (HaCaT cells [2]; MTT, vs solvent control) was no less than 20 µM and the IC20 (HaCaT cells [2]; [13]) was 7.28 µM. For the same compound, the IC50 (HaCaT cells [2]; [13]) was 18.9 µM, the IC80 (HaCaT cells [2]; [13]) was 34 µM and the “doses with statistically significant (p < 0.05) lowering of ROS levels” value (HaCaT cells [3]) was no less than 5 µM. The “effect on ROS induced by tBHP” value (HaCaT cells [3]) was “most pronounced effect”, the “doses with protective effect against UV-induced ROS” value (HaCaT cells [4]; HaCaT pretreated overnight, UV-C 3 h) was no less than 20 µM and the “doses significantly (p < 0.05) reducing endogenous ROS production” value (HaCaT cells [4]; HaCaT, without UV exposure) was no less than 20 µM. The viability at 48 h, 100 µM [7] was 1.08%, the “proportion of cells in early and late apoptosis” value (HaCaT cells [5]; 100 µM) was 88.40% and the “proportion of cells in late apoptosis” value (HaCaT cells [5]; highest concentration (100 µM)) was 88.34%. For the same compound, the “proportion of cells in necrosis” value (HaCaT cells [5]; highest concentration (100 µM)) was 10.52%, the “effect on autophagy induction” value (HaCaT cells [6]; 100 µM (highest dose)) was “highest autophagy induction ratio; also recorded: most prominent autophagy induction ratio” and the “order of the autophagy induction ratio” value (HaCaT cells [6]) was “CRC > CF > RF ≈ RSV”.
In the case of COc1cc(C=CC(=O)C(=C[c-]2cccc2)C(=O)C=Cc2ccc(O)c(OC)c2)ccc1O.[Fe+2].c1cc[cH-]c1 [FCU, 1,7-bis(p-hydroxy-m-methoxyphenyl)-4-ferrocenylidene-hepta-1,6-diene-3,5-dione], the “inhibition of AAPH-induced oxidation of DNA” value (shortened to “inhibition”) (DNA [8]) is given as “in higher extent than CRC, feruloylacetone, and dehydrozingerone” and the “effect on Cu2+/GSH-induced oxidation of DNA” value (from here on “effect … of DNA”) (DNA [9]) is given as “protective effects”.
In the case of COc1cc(C=CC(=O)C=C[c-]2cccc2)ccc1O.[Fe+2].c1cc[cH-]c1 [FDZ, 1-(p-hydroxy-m-methoxyphenyl)-5-ferrocenyl-penta-1,4-dien-3-one], the “inhibition” value (DNA [8]) is listed as “in higher extent than CRC, feruloylacetone, and dehydrozingerone” and the “effect … of DNA” value (DNA [9]) is listed as “protective effects”.
For COc1cc(C=CC(O)=CC(=O)C=C[c-]2cccc2)ccc1O.[Fe+2].c1cc[cH-]c1 [FFT, 1-(p-hydroxy-m-methoxyphenyl)-3-hydroxy-7-ferrocenyl-hepta-1,4,6-trien-5-one], the “inhibition” value (DNA [8]) is given as “in higher extent than CRC, feruloylacetone, and dehydrozingerone” and the “effect … of DNA” value (DNA [9]) is given as “protective effects”.
For O=C(CCC[c-]1cccc1)Oc1ccc(/C=C/c2cc(OC(=O)CCC[c-]3cccc3)cc(OC(=O)CCC[c-]3cccc3)c2)cc1.[Fe+2].[Fe+2].[Fe+2].c1cc[cH-]c1.c1cc[cH-]c1.c1cc[cH-]c1 [RF, trans-3,5,4′-tri(4-ferrocenylbutanoyloxy)-stilbene], the “antiproliferative activity compared to RSV or CRC-treated cells” value (HaCaT cells [1]; Trypan Blue) was “significantly lower antiproliferative activity”, the IC20 (HaCaT cells [1]; [10]) was 10.8 µM and the “effect on ROS induced by tBHP” value (HaCaT cells [3]) was “significantly reduced the ROS induced by tBHP”. For the same compound, the “doses after which the majority of cells remained in the early apoptosis fraction” value (HaCaT cells [5]) was no less than 5 µM, the “effect on autophagy induction” value (HaCaT cells [6]; 5 µM) was “slightly induced autophagy” and the “effect on autophagy induction” value (HaCaT cells [6]; 100 µM (highest dose)) was “lower autophagy-related LC3 protein”. For the same compound, the “order of the autophagy induction ratio” value (HaCaT cells [6]) was “CRC > CF > RF ≈ RSV”.
In the case of Oc1ccc(/C=C/c2cc(O)cc(O)c2)cc1 [RSV, 3,4′,5-trihydroxy-trans-stilbene], the IC20 (HaCaT cells [1]; [12]) is reported as 3.22 µM, the IC50 (HaCaT cells [1]; [12]) is reported as 40.3 µM and the “level of cell death through necrotic or apoptotic pathways” value (HaCaT cells [5]; 100 µM) is reported as no more than 11%. For the same compound, the “cell survival (proportion of viable cells in the culture) vs control” value (HaCaT cells [5]; 100 µM, p < 0.05) was “significantly lower”, the “effect on autophagy induction” value (HaCaT cells [6]; 20 µM, p < 0.05) was “stimulating” and the “effect on autophagy induction” value (HaCaT cells [6]; 100 µM (highest dose)) was “reducing”. For the same compound, the “order of the autophagy induction ratio” value (HaCaT cells [6]) was “CRC > CF > RF ≈ RSV”.
